Results: patent US9522890B2, “Compounds acting at multiple prostaglandin receptors giving a general anti-inflammatory response” (Allergan, Inc., priority 2011, dated 2016)

Assays:
Format in all cases: cell-based
[1] = target: T1, human recombinant prostanoid EP2 receptor (Homo sapiens, UniProt P43116); experiment: FLIPR Ca2+ signaling PG antagonist assay, EP2 receptor stable cell line; settings: HEK-293 EBNA cells with chimeric Gqs, standard agonist PGE2
T1 construct: expressed in transfected cells; co-transfected with chimeric Gqs-HA
Experimental: (§1) The above compounds were tested for PG antagonist activity as follows using human recombinant prostanoid receptor (DP1, EP1-4, FP, IP and TP) stable cell lines:
(§2) In order to measure the response of Gs and Gi coupled prostanoid receptors as a Ca^2+ signal, chimeric G protein cDNAs were used. Stable cell lines over-expressing human prostanoid DP1, EP1-4, FP, IP, and TP receptors were established as follows:
(§3) Briefly, human prostanoid DP1, EP2, and EP4 receptor cDNAs were co-transfected with chimeric Gqs cDNA containing a haemagglutanin (HA) epitope; human prostanoid EP3 receptors were co-transfected with chimeric Gqi-HA; human EP1, FP, IP, and TP receptor cDNAs were expressed with no exogenous G-proteins. Gqs and Gqi chimeric cDNAs (Molecular Devices, Sunnyvale, Calif., U.S.A.), as well as cDNAs of prostanoid receptors, were cloned into a pCEP4 vector with a hygromycin B selection marker. Transfection into HEK-293 EBNA (Epstein-Barr virus nuclear antigen) cells was achieved by the FuGENE 6 transfection Reagent (Roche Applied Science, Indianapolis, Ind., USA). Stable transfectants were selected according to hygromycin resistance. Because Gqs and Gqi contained an HA epitope, G-protein expression was detected by Western blotting analysis using anti-mouse HA monoclonal antibody and horseradish peroxidase (HRP)-conjugated secondary antibody, while functional expression of prostanoid receptors was detected by FLIPR screening (Matias et al., 2004). These stable cell lines were validated using previously published antagonists at 10 μM against serial dilutions of standard agonists by FLIPR functional assays for Ca^2+ Signaling (as described below).
(§4) Ca^2+ signaling studies were performed using a FLIPR TETRA system (Molecular Devices, Sunnyvale, Calif., USA) in the 384-format. This is a high-throughput instrument for cell-based assays to monitor Ca^2+ signaling associated with GPCRs and ion channels. Cells were seeded at a density of 5×10^4 cells/well in BioCoat poly-D-lysine coated, black wall, clear bottom 384-well plates (BD Biosciences, Franklin lakes, NJ, USA) and allowed to attach overnight in an incubator at 37° C. The cells were then washed twice with HBSS-HEPES buffer (Hanks' balanced salt solution without bicarbonate and phenol red, 20 mM HEPES, pH 7.4) using an ELx405 Select CW Microplate Washer (BioTek, Winooski, Vt., USA). After 60 min of dye-loading in the dark using the Ca^2+-sensitive dye Fluo-4AM (Invitrogen, Carlsbad, Calif., USA), at a final concentration of 2×10^−6M, the plates were washed 4 times with HBSS-HEPES buffer to remove excess dye and leaving 50 μl of buffer in each well. The plates were then placed in the FLIPR TETRA instrument and allowed to equilibrate at 37° C. Compounds were added in a 25 μl volume to each well to give final concentrations of 0.1 μM, 0.3 μM, 1 μM, 3 μM, 10 μM, and 30 μM; or 0.067 μM, 0.1 μM, 0.2 μM, 0.3 μM, 0.67 μM, and 1 μM for cells over-expressing TP receptors. After 4.5 minutes, a 7-point serial dilution of the standard agonist for the corresponding receptor, in a 25 μl volume was injected at the final concentrations from 10^−11M to 10^−5M in 10-fold serial dilution increments for cells expressing human recombinant DP1, EP1, EP2, EP3, EP4, FP, and IP receptors. The dose range for the standard agonist for human recombinant TP receptors was from 10^−12M to 10^−6M. HBSS-HEPES buffer was used as the negative control for the standard agonists. Cells were excited with LED (light emitting diode) excitation at 470-495 nm and emission was measured through an emission filter at 515-575 nm. Assay plates were read for 3.5 minutes using the FLIPR^TETRA. The peak increase in fluorescence intensity was recorded for each well. On each plate, negative controls, dose response of positive controls, and co-treatments of antagonist-agonist for each dose were in triplicates. Standard agonists were as follows: DP=BW 245C, EP1-EP4=PGE2, FP=17-phenyl-PGF2α, IP=Cicaprost, and TP=U-46619. […]

[2] = target: T2, human recombinant prostanoid EP1 receptor (Homo sapiens, UniProt P34995); experiment: FLIPR Ca2+ signaling PG antagonist assay, EP1 receptor stable cell line; settings: HEK-293 EBNA cells, standard agonist PGE2
T2 construct: expressed in transfected cells
T2 sequence (P34995 1-402): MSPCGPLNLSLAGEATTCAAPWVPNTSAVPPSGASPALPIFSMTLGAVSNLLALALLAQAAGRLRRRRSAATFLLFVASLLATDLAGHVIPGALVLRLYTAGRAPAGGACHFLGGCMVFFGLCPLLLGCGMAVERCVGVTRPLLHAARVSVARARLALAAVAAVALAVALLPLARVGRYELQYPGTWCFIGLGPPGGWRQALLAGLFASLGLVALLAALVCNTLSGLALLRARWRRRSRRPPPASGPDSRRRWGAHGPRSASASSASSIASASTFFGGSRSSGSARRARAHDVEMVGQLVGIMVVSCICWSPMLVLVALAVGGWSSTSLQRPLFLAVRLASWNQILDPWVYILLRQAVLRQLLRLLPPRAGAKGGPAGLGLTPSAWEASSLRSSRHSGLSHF
Experimental: as §1, §2, §3, §4

[3] = target: T3, human recombinant prostanoid IP receptor (Homo sapiens, UniProt P43119); experiment: FLIPR Ca2+ signaling PG antagonist assay, IP receptor stable cell line; settings: HEK-293 EBNA cells, standard agonist Cicaprost
T3 construct: expressed in transfected cells
Experimental: as §1, §2, §3, §4

[4] = target: T4, human recombinant prostanoid EP4 receptor (Homo sapiens, UniProt P35408); experiment: FLIPR Ca2+ signaling PG antagonist assay, EP4 receptor stable cell line; settings: HEK-293 EBNA cells with chimeric Gqs, standard agonist PGE2
T4 construct: expressed in transfected cells; co-transfected with chimeric Gqs-HA
Experimental: as §1, §2, §3, §4

[5] = target: T5, human recombinant prostanoid FP receptor (Homo sapiens, UniProt P43088); experiment: FLIPR Ca2+ signaling PG antagonist assay, FP receptor stable cell line; settings: HEK-293 EBNA cells, standard agonist 17-phenyl-PGF2α
T5 construct: expressed in transfected cells
Experimental: as §1, §2, §3, §4

[6] = target: T6, human recombinant prostanoid DP1 receptor (Homo sapiens, UniProt Q13258); experiment: FLIPR Ca2+ signaling PG antagonist assay, DP1 receptor stable cell line; settings: HEK-293 EBNA cells with chimeric Gqs, standard agonist BW 245C; read-out: DP (antagonist Kb)
T6 construct: expressed in transfected cells; co-transfected with chimeric Gqs-HA
T6 sequence (Q13258 1-359): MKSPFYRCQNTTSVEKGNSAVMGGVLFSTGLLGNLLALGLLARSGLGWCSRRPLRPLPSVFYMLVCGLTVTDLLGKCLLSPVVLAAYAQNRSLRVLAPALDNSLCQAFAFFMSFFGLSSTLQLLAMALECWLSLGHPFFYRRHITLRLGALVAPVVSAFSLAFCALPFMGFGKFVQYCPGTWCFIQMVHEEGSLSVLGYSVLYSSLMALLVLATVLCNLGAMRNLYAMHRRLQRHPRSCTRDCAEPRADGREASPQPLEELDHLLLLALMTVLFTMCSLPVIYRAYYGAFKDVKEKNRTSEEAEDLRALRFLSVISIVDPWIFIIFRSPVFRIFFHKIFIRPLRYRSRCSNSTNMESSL
Experimental: as §1, §2, §3, §4

[7] = target: T7, human recombinant prostanoid EP3 receptor (Homo sapiens, UniProt P43115); experiment: FLIPR Ca2+ signaling PG antagonist assay, EP3 receptor stable cell line; settings: HEK-293 EBNA cells with chimeric Gqi, standard agonist PGE2
T7 construct: expressed in transfected cells; co-transfected with chimeric Gqi-HA
T7 sequence (P43115 1-390): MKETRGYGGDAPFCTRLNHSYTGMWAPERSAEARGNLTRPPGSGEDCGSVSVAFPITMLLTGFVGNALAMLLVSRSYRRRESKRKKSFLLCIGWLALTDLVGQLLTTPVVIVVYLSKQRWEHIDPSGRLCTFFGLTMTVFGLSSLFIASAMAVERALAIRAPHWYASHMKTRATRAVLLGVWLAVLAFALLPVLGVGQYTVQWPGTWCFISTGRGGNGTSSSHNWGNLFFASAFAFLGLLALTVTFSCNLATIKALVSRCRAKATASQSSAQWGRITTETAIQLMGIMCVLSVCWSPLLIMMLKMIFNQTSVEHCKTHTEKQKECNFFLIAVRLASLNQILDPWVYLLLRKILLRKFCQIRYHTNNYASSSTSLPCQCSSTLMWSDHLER
Experimental: as §1, §2, §3, §4

[8] = target: T8, human recombinant prostanoid TP receptor (Homo sapiens, UniProt P21731); experiment: FLIPR Ca2+ signaling PG antagonist assay, TP receptor stable cell line; settings: HEK-293 EBNA cells, standard agonist U-46619
T8 construct: expressed in transfected cells
T8 sequence (P21731 1-343): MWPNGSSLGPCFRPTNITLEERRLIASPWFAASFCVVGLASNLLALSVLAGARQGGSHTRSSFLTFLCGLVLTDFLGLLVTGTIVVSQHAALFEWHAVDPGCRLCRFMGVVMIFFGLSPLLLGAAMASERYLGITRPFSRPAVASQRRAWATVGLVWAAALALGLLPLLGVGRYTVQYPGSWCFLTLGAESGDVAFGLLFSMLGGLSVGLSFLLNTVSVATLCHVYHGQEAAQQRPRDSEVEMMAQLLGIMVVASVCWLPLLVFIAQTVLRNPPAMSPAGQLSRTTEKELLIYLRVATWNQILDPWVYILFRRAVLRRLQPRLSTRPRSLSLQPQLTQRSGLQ
Experimental: as §1, §2, §3, §4

T4 sequence (P35408 whole entry): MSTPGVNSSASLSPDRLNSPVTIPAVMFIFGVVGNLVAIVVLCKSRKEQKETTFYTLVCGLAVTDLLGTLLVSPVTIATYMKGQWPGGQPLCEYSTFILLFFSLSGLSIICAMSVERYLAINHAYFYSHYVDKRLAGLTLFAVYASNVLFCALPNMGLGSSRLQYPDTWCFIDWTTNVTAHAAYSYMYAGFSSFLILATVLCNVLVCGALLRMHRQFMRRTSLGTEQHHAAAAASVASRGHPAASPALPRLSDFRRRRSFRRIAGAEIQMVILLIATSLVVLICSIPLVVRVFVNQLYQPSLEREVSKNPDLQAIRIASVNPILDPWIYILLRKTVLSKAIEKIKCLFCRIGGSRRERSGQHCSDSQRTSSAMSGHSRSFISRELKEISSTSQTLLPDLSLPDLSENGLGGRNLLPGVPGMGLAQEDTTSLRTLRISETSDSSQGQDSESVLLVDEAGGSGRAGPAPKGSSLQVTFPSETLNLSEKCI
T5 sequence (P43088 whole entry): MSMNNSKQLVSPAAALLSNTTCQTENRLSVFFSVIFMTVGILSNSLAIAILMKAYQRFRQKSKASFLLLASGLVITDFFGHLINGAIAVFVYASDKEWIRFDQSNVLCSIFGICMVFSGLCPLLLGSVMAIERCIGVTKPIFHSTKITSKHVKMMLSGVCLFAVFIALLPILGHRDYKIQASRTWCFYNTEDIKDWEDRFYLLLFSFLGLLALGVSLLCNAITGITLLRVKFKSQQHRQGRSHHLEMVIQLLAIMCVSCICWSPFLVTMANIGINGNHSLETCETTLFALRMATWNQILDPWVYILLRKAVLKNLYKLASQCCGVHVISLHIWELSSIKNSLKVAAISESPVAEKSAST
T1 sequence (P43116 whole entry): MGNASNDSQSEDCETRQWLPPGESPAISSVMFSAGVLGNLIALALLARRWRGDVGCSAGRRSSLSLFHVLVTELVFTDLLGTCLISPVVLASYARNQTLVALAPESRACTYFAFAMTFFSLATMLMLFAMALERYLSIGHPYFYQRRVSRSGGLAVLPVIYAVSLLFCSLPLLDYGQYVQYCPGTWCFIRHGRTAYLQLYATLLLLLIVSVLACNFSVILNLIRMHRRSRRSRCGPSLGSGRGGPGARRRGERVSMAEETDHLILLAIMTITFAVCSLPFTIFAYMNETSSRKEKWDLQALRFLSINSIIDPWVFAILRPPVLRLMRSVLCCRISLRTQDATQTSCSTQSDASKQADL
T3 sequence (P43119 whole entry): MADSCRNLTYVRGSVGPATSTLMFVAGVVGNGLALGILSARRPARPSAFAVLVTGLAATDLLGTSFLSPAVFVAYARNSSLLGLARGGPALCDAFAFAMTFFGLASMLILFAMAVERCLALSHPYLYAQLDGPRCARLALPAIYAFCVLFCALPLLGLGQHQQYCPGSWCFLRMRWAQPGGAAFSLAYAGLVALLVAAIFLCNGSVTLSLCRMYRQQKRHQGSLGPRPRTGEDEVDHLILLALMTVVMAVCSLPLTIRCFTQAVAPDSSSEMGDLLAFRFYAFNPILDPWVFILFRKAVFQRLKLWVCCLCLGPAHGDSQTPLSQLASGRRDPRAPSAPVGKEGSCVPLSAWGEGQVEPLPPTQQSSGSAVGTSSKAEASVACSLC

Kb [1] [µM]	Kb [2] [µM]	Kb [3] [µM]	Kb [4] [µM]	Kb [5] [µM]	Kb [6] [µM]	Kb [7] [µM]	Kb [8] [µM]	Structure (SMILES)
≥ 10	0.03	≥ 10	0.8	0.15	0.8	≥ 10	< 0.001	Cc1cc(C(=O)O)nn1Cc1cc(Cl)ccc1OCC1CCCC1 [Example 1, 1-(5-CHLORO-2-CYCLOPENTYLMETHOXY-BENZYL)-5-METHYL-1H-PYRAZOLE-3-CARBOXYLIC ACID]
≥ 10	0.01	1.3	0.4	0.02	0.4	≥ 10	< 0.001	Cc1cc(C(=O)O)nn1Cc1cc(Br)ccc1OCC1CCCC1 [Example 2, 1-(5-BROMO-2-CYCLOPENTYLMETHOXY-BENZYL)-5-METHYL-1H-PYRAZOLE-3-CARBOXYLIC ACID]
8.9	0.005	4	0.7	0.08	0.7	≥ 10	0.001	Cc1cc(C(=O)O)nn1Cc1cc(C(F)(F)F)ccc1OCC1CCCC1 [Example 3, 1-(2-CYCLOPENTYLMETHOXY-5-TRIFLUOROMETHYL-BENZYL)-5-METHYL-1H-PYRAZOLE-3-CARBOXYLIC ACID]
≥ 10	0.01	5.6	0.7	0.008	0.13	4.1	0.008	Cc1cc(C(=O)O)nn1Cc1cc(Br)ccc1OCC1CCC1 [Example 8, 1-(5-BROMO-2-CYCLOBUTYLMETHOXY-BENZYL)-5-METHYL-1H-PYRAZOLE-3-CARBOXYLIC ACID]

Continued, molecule first:

Structure (SMILES)	Kb [1] [µM]	Kb [2] [µM]	Kb [3] [µM]	Kb [4] [µM]	Kb [5] [µM]	Kb [6] [µM]	Kb [7] [µM]	Kb [8] [µM]
COc1ccc(COc2ccc(Cl)cc2Cn2nc(C(=O)NS(=O)(=O)c3ccccc3)cc2C)cc1 [Example 4, N-{1-[5-CHLORO-2-(4-METHOXY-BENZYLOXY)-BENZYL]-5-METHYL-1H-PYRAZOLE-3-CARBONYL}-BENZENESULFONAMIDE]	4.9	0.01	0.9	0.14	0.4	0.8	2.5	0.002
Cc1cc(C(=O)NS(=O)(=O)c2ccccc2)nn1Cc1cc(Cl)ccc1OCc1ccc(Cl)cc1 [Example 5, N-{1-[5-CHLORO-2-(4-CHLORO-BENZYLOXY)-BENZYL]-5-METHYL-1H-PYRAZOLE-3-CARBONYL}-BENZENESULFONAMIDE]	≥ 10	0.01	2	0.075	1.7	2.6	1.5	0.01
CCC(CC)COc1ccc(Br)cc1Cn1nc(C(=O)O)cc1C [Example 6, 1-[5-BROMO-2-(2-ETHYL-BUTOXY)-BENZYL]-5-METHYL-1H-PYRAZOLE-3-CARBOXYLIC ACID]	6.2	0.01	0.5	0.8	0.035	0.15	≥ 10	< 0.001
CCC(C)(CC)COc1ccc(Br)cc1Cn1nc(C(=O)O)cc1C [Example 7, 1-[5-BROMO-2-(2-ETHYL-2-METHYL-BUTOXY)-BENZYL]-5-METHYL-1H-PYRAZOLE-3-CARBOXYLIC ACID]	3.6	0.019	1.7	2.07	0.08	0.15	≥ 10	0.011
Cc1cc(C(=O)O)nn1Cc1cc(Br)ccc1OCC1(C(F)(F)F)CCC1 [Example 9, 1-[5-BROMO-2-(1-TRIFLUOROMETHYL-CYCLOBUTYLMETHOXY)-BENZYL]-5-METHYL-1H-PYRAZOLE-3-CARBOXYLIC ACID]	3.3	0.016	≥ 10	0.6	0.03	0.19	2.6	0.01
